Assay results taken from patent US20250230193A1, “CYCLIC COMPOUND HAVING SELECTIVE KRAS INHIBITORY EFFECT ON HRAS AND NRAS” (CHUGAI SEIYAKU KABUSHIKI KAISHA, priority 2022, published 2025).

Columns and labels:
[1] = biological target: GDP-bound NRAS wild-type protein (Homo sapiens, UniProt P01111); test: Binding to NRAS by surface plasmon resonance (SPR), Single Cycle Kinetics; conditions: KD ratio NRAS/KRAS, SPR
[2] = biological target: GDP-bound HRAS wild-type protein (Homo sapiens, UniProt P01112); test: Binding to HRAS by surface plasmon resonance (SPR), Single Cycle Kinetics; conditions: KD ratio HRAS/KRAS, SPR
Chain of GDP-bound HRAS wild-type protein (P01112 whole entry): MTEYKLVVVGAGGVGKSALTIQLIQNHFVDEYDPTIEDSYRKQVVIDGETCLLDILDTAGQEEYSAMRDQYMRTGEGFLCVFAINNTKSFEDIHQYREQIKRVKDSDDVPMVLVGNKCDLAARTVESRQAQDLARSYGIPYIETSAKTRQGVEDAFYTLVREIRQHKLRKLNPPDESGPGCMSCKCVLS

Chain of GDP-bound NRAS wild-type protein (P01111 whole entry): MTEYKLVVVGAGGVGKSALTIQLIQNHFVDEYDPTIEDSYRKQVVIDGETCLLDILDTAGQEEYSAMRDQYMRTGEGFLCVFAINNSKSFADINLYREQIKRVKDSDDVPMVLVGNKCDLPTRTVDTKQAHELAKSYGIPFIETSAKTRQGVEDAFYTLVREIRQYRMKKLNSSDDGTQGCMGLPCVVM

SMILES	NRAS/KRAS (ratio of KD value with respect to GDP-bound NRAS wild-type protein to KD value with respect to KRAS) [1]	HRAS/KRAS (ratio of KD value with respect to GDP-bound HRAS wild-type protein to KD value with respect to KRAS) [2]
CCO[C@@H]1C[C@H]2C(=O)NC3(CCC3)C(=O)N(C)[C@@H](C3CCCC3)C(=O)N(C)[C@H](C(=O)N(C)C)CC(=O)N(C)[C@@H](Cc3cccnc3)C(=O)N[C@@H]([C@@H](C)CC)C(=O)N(C)CC(=O)N(C)[C@H]3CCCCCN(C3=O)[C@@H](Cc3ccc(C(F)(F)F)cc3)C(=O)N(C)CC(=O)N[C@@H](CCc3cc(F)c(C(F)(F)F)c(F)c3)C(=O)N2C1 [PP0673]	B (a compound having 3 or more and less than 10 is denoted as B)	B (a compound having 3 or more and less than 10 is denoted as B)
CCO[C@@H]1C[C@H]2C(=O)NC3(CCC3)C(=O)N(C)[C@@H](C3CCCC3)C(=O)N(C)[C@H](C(=O)N(C)C)CC(=O)N(C)[C@@H](COC)C(=O)N[C@@H]([C@@H](C)CC)C(=O)N(C)CC(=O)N(C)[C@H]3CCCCCN(C3=O)[C@@H](Cc3ccc(C(F)(F)F)cc3)C(=O)N(C)CC(=O)N[C@@H](CCc3cc(F)c(C(F)(F)F)c(F)c3)C(=O)N2C1 [PP0674]	B (a compound having 3 or more and less than 10 is denoted as B)	B (a compound having 3 or more and less than 10 is denoted as B)
CCO[C@@H]1C[C@H]2C(=O)NC3(CCC3)C(=O)N(C)[C@@H](C3CCCC3)C(=O)N(C)[C@H](C(=O)N(C)C)CC(=O)N(C)[C@@H](CCOC)C(=O)N[C@@H]([C@@H](C)CC)C(=O)N(C)CC(=O)N(C)[C@H]3CCCCCN(C3=O)[C@@H](Cc3ccc(C(F)(F)F)cc3)C(=O)N(C)CC(=O)N[C@@H](CCc3cc(F)c(C(F)(F)F)c(F)c3)C(=O)N2C1 [PP0675]	B (a compound having 3 or more and less than 10 is denoted as B)	B (a compound having 3 or more and less than 10 is denoted as B)
CCO[C@@H]1C[C@H]2C(=O)NC3(CCC3)C(=O)N(C)[C@@H](C3CCCC3)C(=O)N(C)[C@H](C(=O)N3CCOCC3)CC(=O)N(C)[C@@H](CC)C(=O)N[C@@H]([C@@H](C)CC)C(=O)N(C)CC(=O)N(C)[C@H]3CCCCCN(C3=O)[C@@H](Cc3ccc(C(F)(F)F)cc3)C(=O)N(C)CC(=O)N[C@@H](CCc3cc(F)c(C(F)(F)F)c(F)c3)C(=O)N2C1 [PP0678]	B (a compound having 3 or more and less than 10 is denoted as B)	B (a compound having 3 or more and less than 10 is denoted as B)
CCC[C@H]1C(=O)N[C@@H]([C@@H](C)CC)C(=O)N(C)CC(=O)N(C)[C@H]2CCCCCN(C2=O)[C@@H](Cc2ccc(C(F)(F)F)cc2)C(=O)N(C)CC(=O)N[C@@H](CCc2cc(F)c(C(F)(F)F)c(F)c2)C(=O)N2C[C@H](OCC)C[C@H]2C(=O)NC2(CCC2)C(=O)N(C)[C@@H](C2CCCC2)C(=O)N(C)[C@H](C(=O)N2CCOCC2)CC(=O)N1C [PP0679]	B (a compound having 3 or more and less than 10 is denoted as B)	B (a compound having 3 or more and less than 10 is denoted as B)
C#CC[C@H]1C(=O)N[C@@H]([C@@H](C)CC)C(=O)N(C)CC(=O)N(C)[C@H]2CCCCCN(C2=O)[C@@H](Cc2ccc(C(F)(F)F)cc2)C(=O)N(C)CC(=O)N[C@@H](CCc2cc(F)c(C(F)(F)F)c(F)c2)C(=O)N2C[C@H](OCC)C[C@H]2C(=O)NC2(CCC2)C(=O)N(C)[C@@H](C2CCCC2)C(=O)N(C)[C@H](C(=O)N2CCOCC2)CC(=O)N1C [PP0681]	B (a compound having 3 or more and less than 10 is denoted as B)	B (a compound having 3 or more and less than 10 is denoted as B)
CCO[C@@H]1C[C@H]2C(=O)NC3(CCC3)C(=O)N(C)[C@@H](C3CCCC3)C(=O)N(C)[C@H](C(=O)N3CCOCC3)CC(=O)N(C)[C@@H](CC3CC3)C(=O)N[C@@H]([C@@H](C)CC)C(=O)N(C)CC(=O)N(C)[C@H]3CCCCCN(C3=O)[C@@H](Cc3ccc(C(F)(F)F)cc3)C(=O)N(C)CC(=O)N[C@@H](CCc3cc(F)c(C(F)(F)F)c(F)c3)C(=O)N2C1 [PP0682]	B (a compound having 3 or more and less than 10 is denoted as B)	B (a compound having 3 or more and less than 10 is denoted as B)
CCO[C@@H]1C[C@H]2C(=O)NC3(CCC3)C(=O)N(C)[C@@H](C3CCCC3)C(=O)N(C)[C@H](C(=O)N3CCOCC3)CC(=O)N(C)[C@@H](CC3CCC3)C(=O)N[C@@H]([C@@H](C)CC)C(=O)N(C)CC(=O)N(C)[C@H]3CCCCCN(C3=O)[C@@H](Cc3ccc(C(F)(F)F)cc3)C(=O)N(C)CC(=O)N[C@@H](CCc3cc(F)c(C(F)(F)F)c(F)c3)C(=O)N2C1 [PP0683]	B (a compound having 3 or more and less than 10 is denoted as B)	B (a compound having 3 or more and less than 10 is denoted as B)
CCO[C@@H]1C[C@H]2C(=O)NC3(CCC3)C(=O)N(C)[C@@H](C3CCCC3)C(=O)N(C)[C@H](C(=O)N3CCOCC3)CC(=O)N(C)[C@@H](CC(C)(C)C)C(=O)N[C@@H]([C@@H](C)CC)C(=O)N(C)CC(=O)N(C)[C@H]3CCCCCN(C3=O)[C@@H](Cc3ccc(C(F)(F)F)cc3)C(=O)N(C)CC(=O)N[C@@H](CCc3cc(F)c(C(F)(F)F)c(F)c3)C(=O)N2C1 [PP0684]	B (a compound having 3 or more and less than 10 is denoted as B)	B (a compound having 3 or more and less than 10 is denoted as B)
CCO[C@@H]1C[C@H]2C(=O)NC3(CCC3)C(=O)N(C)[C@@H](C3CCCC3)C(=O)N(C)[C@H](C(=O)N3CCOCC3)CC(=O)N(C)[C@@H](CC3CCCC3)C(=O)N[C@@H]([C@@H](C)CC)C(=O)N(C)CC(=O)N(C)[C@H]3CCCCCN(C3=O)[C@@H](Cc3ccc(C(F)(F)F)cc3)C(=O)N(C)CC(=O)N[C@@H](CCc3cc(F)c(C(F)(F)F)c(F)c3)C(=O)N2C1 [PP0685]	B (a compound having 3 or more and less than 10 is denoted as B)	B (a compound having 3 or more and less than 10 is denoted as B)
CCO[C@@H]1C[C@H]2C(=O)NC3(CCC3)C(=O)N(C)[C@@H](C3CCCC3)C(=O)N(C)[C@H](C(=O)N3CCOCC3)CC(=O)N(C)[C@@H](CC3CCCCC3)C(=O)N[C@@H]([C@@H](C)CC)C(=O)N(C)CC(=O)N(C)[C@H]3CCCCCN(C3=O)[C@@H](Cc3ccc(C(F)(F)F)cc3)C(=O)N(C)CC(=O)N[C@@H](CCc3cc(F)c(C(F)(F)F)c(F)c3)C(=O)N2C1 [PP0686]	B (a compound having 3 or more and less than 10 is denoted as B)	B (a compound having 3 or more and less than 10 is denoted as B)
CCO[C@@H]1C[C@H]2C(=O)NC3(CCC3)C(=O)N(C)[C@@H](C3CCCC3)C(=O)N(C)[C@H](C(=O)N3CCOCC3)CC(=O)N(C)[C@@H](Cc3ccccc3)C(=O)N[C@@H]([C@@H](C)CC)C(=O)N(C)CC(=O)N(C)[C@H]3CCCCCN(C3=O)[C@@H](Cc3ccc(C(F)(F)F)cc3)C(=O)N(C)CC(=O)N[C@@H](CCc3cc(F)c(C(F)(F)F)c(F)c3)C(=O)N2C1 [PP0687]	B (a compound having 3 or more and less than 10 is denoted as B)	B (a compound having 3 or more and less than 10 is denoted as B)
CCO[C@@H]1C[C@H]2C(=O)NC3(CCC3)C(=O)N(C)[C@@H](C3CCCC3)C(=O)N(C)[C@H](C(=O)N3CCOCC3)CC(=O)N(C)[C@@H](COC)C(=O)N[C@@H]([C@@H](C)CC)C(=O)N(C)CC(=O)N(C)[C@H]3CCCCCN(C3=O)[C@@H](Cc3ccc(C(F)(F)F)cc3)C(=O)N(C)CC(=O)N[C@@H](CCc3cc(F)c(C(F)(F)F)c(F)c3)C(=O)N2C1 [PP0689]	B (a compound having 3 or more and less than 10 is denoted as B)	B (a compound having 3 or more and less than 10 is denoted as B)
CCO[C@@H]1C[C@H]2C(=O)NC3(CCC3)C(=O)N(C)[C@@H](C3CCCC3)C(=O)N(C)[C@H](C(=O)N3CCOCC3)CC(=O)N(C)[C@@H](CCOC)C(=O)N[C@@H]([C@@H](C)CC)C(=O)N(C)CC(=O)N(C)[C@H]3CCCCCN(C3=O)[C@@H](Cc3ccc(C(F)(F)F)cc3)C(=O)N(C)CC(=O)N[C@@H](CCc3cc(F)c(C(F)(F)F)c(F)c3)C(=O)N2C1 [PP0690]	B (a compound having 3 or more and less than 10 is denoted as B)	B (a compound having 3 or more and less than 10 is denoted as B)
CCO[C@@H]1C[C@H]2C(=O)NC3(CCC3)C(=O)N(C)[C@@H](C3CCCC3)C(=O)N(C)[C@H](C(=O)N(C)C)CC(=O)N(C)[C@@H](CC)C(=O)N[C@@H]([C@@H](C)CC)C(=O)N(C)CC(=O)N(C)[C@H]3CCCCN(C3=O)[C@@H](Cc3ccc(C(F)(F)F)cc3)C(=O)N(C)CC(=O)N[C@@H](CCc3cc(F)c(C(F)(F)F)c(F)c3)C(=O)N2C1 [PP0693]	C (A compound having a KD ratio of 0.1 or more and less than 3 is denoted as C)	C (A compound having a KD ratio of 0.1 or more and less than 3 is denoted as C)
